Measurements reported in patent US20220135567A1, “TYK2 PSEUDOKINASE LIGANDS” (Ventyx Biosciences, Inc., priority 2019, published 2022).

Tested on: IFN-a/Jak1Tyk2
Assay: Co-stimulation assay in lysed whole blood: IFNa (JAK1/TYK2) stimulated STAT1 phosphorylation
Format: cell-based
Conditions: 20 min, lysed human whole blood, IFNa 100 ng/mL + GM-CSF 10 ng/mL, pSTAT1 by flow cytometry
Procedure: Dilute RBC lysis buffer to 1× in distilled water. Add 2 mL blood to 38 mL of 1×RBC-lysis buffer. Incubate for 15 mins at RT, in dark. Spin at 300 g, 5 mins, to collect the pellet. Re-lyse if necessary. Re-suspend pellet in 5 mL of cRPMI.
Aliquot 80 μL of lysed human blood in to wells of 96 deep-well plate. Add 10 μl of (10× conc.) of different concentrations of compounds to all wells except controls (unstained and unstimulated) and mix it with the help of 100 uL multichannel. Add 10 uL of RPMI media in controls. For dilution of compounds and dilution range please refer Appendix. Incubate on water bath or CO2 incubator for 1 hour at 37° C. Add 10 μl of (10× conc.) of cytokine mix (GM-CSF and IFNa) (final conc. 10 ng/mL of GM-CSF and 100 ng/mL of IFNa) to each well except unstimulated and unstained controls and incubate further for 20 minutes on water bath at 37° C.
Add 900 μL of prewarmed 1× Fix/Lyse solution (Appendix) and mix it properly using 1000 μl multichannel, incubate further on water bath at 37° C. for 10 minutes (which includes time of addition). Centrifuge at 800×g for 5 minutes at 40° C.; remove 900 uL of supernatant and add 900 μL of 1×PBS. Centrifuge at 800×g for 5 minutes at 40° C., remove 900 μL of supernatant. Wash one more time with 900 μL of PBS (optional) and resuspend pellets in 100 uL of PBS.
Disrupt the pellet by gentle tapping and resuspend in 1000 μL of BD Phosflow Perm Buffer III and incubate plate on ice for 30 minutes. Centrifuge plate at 800×g for 5 minutes at 40° C. Wash two more times with 1000 μL of BD Pharmingen Stain Buffer.
Disrupt the pellet by gentle tapping. Resuspend pellets in 100 uL of Stain Buffer and add 5 μL of pSTAT5_AF488 Ab and 5 uL of pSTAT1_PE in all wells except unstained control and mix properly using 200 μl multichannel, incubate overnight at […]. Add 900 μL of wash buffer and centrifuge at 1800 rpm for 3 minutes at […]. Wash one more time with 1000 μL of BD Pharmingen Stain Buffer. Finally resuspend the pellet in 300 uL of BD Pharmingen Stain Buffer. Transfer the cells to 96-well v-bottom plate and acquire the cells in Beckman Coulter CytExpert. Acquiring cells in Flow Cytometer: Keep the threshold value to 250 and cell concentration should not exceed 100-500 cells/μL. Acquire at least 5,000-10,000 cells.
Cytokine dilution: 1) GM-CSF Stock at 100 ug/mL. Prepare an intermediate dilution of 1 ug/mL by adding 2 uL of stock into 198 uL of cRPMI. Further dilute to 100 ng/mL by adding 100 uL of the intermediate stock to 900 uL of cRPMI. 2) IFNa Stock at 200 ug/mL. Dilute IFNa stock 1:200 by adding 5 uL of stock into the 1000 uL of 100 ng/mL GM-CSF working stock as above to give a combined working stock of 1000 ng/mL of IFNa and 100 ng/mL GM-CSF (10×). Keep it on ice until used.
Lyse/Fix buffer preparation: Dilute 5× Lyse/Fix buffer to 1× using MQ water and keep at 37° C. until used.
BD Phosflow perm buffer III: Keep on ice/fridge.

Structure (SMILES)	IC50 [nM]
CCOC(=O)c1nscc1Nc1cc(NC)n2ncc(C(=O)NCCOC)c2n1 [Compound 45, ethyl 4-((3-((2-methoxyethyl)carbamoyl)-7-(methylamino)pyrazolo[1,5-a]pyrimidin-5-yl)amino)isothiazole-3-carboxylate]	> 300
CNc1cc(Nc2csnc2C(=O)O)nc2c(C(=O)NCCOC)cnn12 [Compound 46, 4-((3-((2-methoxyethyl)carbamoyl)-7-(methylamino)pyrazolo[1,5-a]pyrimidin-5-yl)amino)isothiazole-3-carboxylic acid]	> 300
CNc1cc(Nc2cccc3c2OC(F)(F)O3)nc2c(C(=O)NCC(C)(C)CO)cnn12 [Compound 48, 5-((2,2-difluorobenzo[d][1,3]dioxol-4-yl)amino)-N-(3-hydroxy-2,2-dimethylpropyl)-7-(methylamino)pyrazolo[1,5-a]pyrimidine-3-carboxamide]	< 100
CNc1cc(Nc2c(Cl)ccc3c2OCO3)nc2c(C(=O)NCC(C)(C)CO)cnn12 [Compound 49, 5-((5-chlorobenzo[d][1,3]dioxol-4-yl)amino)-N-(3-hydroxy-2,2-dimethylpropyl)-7-(methylamino)pyrazolo[1,5-a]pyrimidine-3-carboxamide]	1000 to 10000
CNc1cc(Nc2cccc3c2OCO3)nc2c(C(=O)NCC(C)(C)CO)cnn12 [Compound 50, 5-(benzo[d][1,3]dioxol-4-ylamino)-N-(3-hydroxy-2,2-dimethylpropyl)-7-(methylamino)pyrazolo[1,5-a]pyrimidine-3-carboxamide]	< 100
CNc1cc(Nc2cccc3c2OCCO3)nc2c(C(=O)NCC(F)(F)F)cnn12 [Compound 52, 5-((2,3-dihydrobenzo[b][1,4]dioxin-5-yl)amino)-7-(methylamino)-N-(2,2,2-trifluoroethyl)pyrazolo[1,5-a]pyrimidine-3-carboxamide]	100 to 1000
CC(C)(CO)CNC(=O)c1cnn2c(N)cc(Nc3cccc4c3OCO4)nc12 [Compound 58, 7-amino-5-(benzo[d][1,3]dioxol-4-ylamino)-N-(3-hydroxy-2,2-dimethylpropyl)pyrazolo[1,5-a]pyrimidine-3-carboxamide]	100 to 1000
CC(C)(CO)CNC(=O)c1cnn2c(NC3CC3)cc(Nc3cccc4c3OCO4)nc12 [Compound 59, 5-(benzo[d][1,3]dioxol-4-ylamino)-7-(cyclopropylamino)-N-(3-hydroxy-2,2-dimethylpropyl)pyrazolo[1,5-a]pyrimidine-3-carboxamide]	1000 to 10000
CNc1cc(Nc2cccc3c2OCCO3)nc2c(C(=O)NCC(C)(C)O)cnn12 [Compound 63, 5-((2,3-dihydrobenzo[b][1,4]dioxin-5-yl)amino)-N-(2-hydroxy-2-methylpropyl)-7-(methylamino)pyrazolo[1,5-a]pyrimidine-3-carboxamide]	< 100
CNc1cc(Nc2cccc3c2OCCO3)nc2c(C(=O)NCC(C)(O)CO)cnn12 (stereo not drawn) [Compound 65, 5-((2,3-dihydrobenzo[b][1,4]doxin-5-yl)amino)-N-(2,3-dihydroxy-2-methylpropyl)-7-(methylamino)pyrazolo[1,5-a]pyrimidine-3-carboxamide]	< 100
CNc1cc(Nc2cccn(-c3ccc(OC)nn3)c2=O)nc2c(C(=O)NCC(C)(C)CO)cnn12 [Compound 66, N-(3-hydroxy-2,2-dimethylpropyl)-5-((1-(6-methoxypyridazin-3-yl)-2-oxo-1,2-dihydropyridin-3-yl)amino)-7-(methylamino)pyrazolo[1,5-a]pyrimidine-3-carboxamide]	100 to 1000
CNc1cc(Nc2cccn(-c3ccc(OC)nn3)c2=O)nc2c(C(=O)NCC(F)(F)F)cnn12 [Compound 67, 5-((1-(6-methoxypyridazin-3-yl)-2-oxo-1,2-dihydropyridin-3-yl)amino)-7-(methylamino)-N-(2,2,2-trifluoroethyl)pyrazolo[1,5-a]pyrimidine-3-carboxamide]	1000 to 10000

Further lines, results first:

IC50 [nM]	Structure (SMILES)
100 to 1000	CNC(=O)c1cscc1Nc1cc(NC)n2ncc(C(=O)NC3CC3)c2n1 [Compound 44, N-cyclopropyl-7-(methylamino)-5-((4-(methylcarbamoyl)thiophen-3-yl)amino)pyrazolo[1,5-a]pyrimidine-3-carboxamide]
> 300	CNc1cc(Nc2cnn(CCOC)c2)nc2c(C(=O)NC3CC3)cnn12 [Compound 47, N-cyclopropyl-5-((1-(2-methoxyethyl)-1H-pyrazol-4-yl)amino)-7-(methylamino)pyrazolo[1,5-a]pyrimidine-3-carboxamide]
< 100	CNc1cc(Nc2cccc(N3CCN(C)CC3)c2)nc2c(C(=O)NC3CC3)cnn12 [Compound 51, N-cyclopropyl-7-(methylamino)-5-((3-(4-methylpiperazin-1-yl)phenyl)amino)pyrazolo[1,5-a]pyrimidine-3-carboxamide]
100 to 1000	CNc1cc(Nc2ccnn2C)nc2c(C(=O)NC3CC3)cnn12 [Compound 53, N-cyclopropyl-5-((1-methyl-1H-pyrazol-5-yl)amino)-7-(methylamino)pyrazolo[1,5-a]pyrimidine-3-carboxamide]
100 to 1000	CNc1cc(Nc2ccccc2OC(F)(F)F)nc2c(C(=O)NC3CC3)cnn12 [Compound 54, N-cyclopropyl-7-(methylamino)-5-((2-(trifluoromethoxy)phenyl)amino) pyrazolo[1,5-a]pyrimidine-3-carboxamide]
< 100	CNc1cc(Nc2cccc(N3CCOCC3)c2)nc2c(C(=O)NC3CC3)cnn12 [Compound 55, N-cyclopropyl-7-(methylamino)-5-((3-morpholinophenyl)amino)pyrazolo [1,5-a]pyrimidine-3-carboxamide]
100 to 1000	CNc1cc(Nc2cc(C)cnc2OC)nc2c(C(=O)NC3CC3)cnn12 [Compound 56, N-cyclopropyl-5-((2-methoxy-5-methylpyridin-3-yl)amino)-7-(methylamino)pyrazolo[1,5-a]pyrimidine-3-carboxamide]
100 to 1000	CNc1cc(Nc2cc(Cl)ccc2OC(F)(F)F)nc2c(C(=O)NC3CC3)cnn12 [Compound 57, 5-((5-chloro-2-(trifluoromethoxy)phenyl)amino)-N-cyclopropyl-7-(methylamino)pyrazolo[1,5-a]pyrimidine-3-carboxamide]
1000 to 10000	CNc1cc(Nc2ccc3c(c2)CCN(C)C3)nc2c(C(=O)NC3CC3)cnn12 [Compound 60, N-cyclopropyl-5-((2-methyl-1,2,3,4-tetrahydroisoquinolin-6-yl)amino)-7-(methylamino)pyrazolo[1,5-a]pyrimidine-3-carboxamide]
1000 to 10000	CNc1cc(Nc2ccc3c(c2)CN(C)CC3)nc2c(C(=O)NC3CC3)cnn12 [Compound 61, N-cyclopropyl-5-((2-methyl-1,2,3,4-tetrahydroisoquinolin-7-yl)amino)-7-(methylamino)pyrazolo[1,5-a]pyrimidine-3-carboxamide]
1000 to 10000	CNc1cc(Nc2cc(C(F)(F)F)cnc2OC)nc2c(C(=O)NC3CC3)cnn12 [Compound 62, N-cyclopropyl-5-((2-methoxy-5-(trifluoromethyl)pyridin-3-yl)amino)-7-(methylamino)pyrazolo[1,5-a]pyrimidine-3-carboxamide]
> 300	CNc1cc(Nc2ccn(CC(F)(F)F)n2)nc2c(C(=O)NC3CC3)cnn12 [Compound 64, N-cyclopropyl-7-(methylamino)-5-((1-(2,2,2-trifluoroethyl)-1H-pyrazol-3-yl)amino)pyrazolo[1,5-a]pyrimidine-3-carboxamide]
